Columns and labels:
[1] = Inhibition of HIV1 gp160 by cell-cell fusion inhibition assay; parameters: species or system Human immunodeficiency virus 1
[2] = Permeability from apical to basolateral side of human Caco-2 cells at 5 uM; format: ADME, cell-based; details: read-out: permeability
[3] = biological target: T1, Voltage-gated inwardly rectifying potassium channel KCNH2 (Homo sapiens, UniProt Q12809); test: Inhibition of human ERG at 10 uM
[4] = Permeability from apical to basolateral side in human Caco-2 cells at 5 uM; format: ADME, cell-based; details: read-out: permeability
[5] = Metabolic stability in human liver microsomes assessed as intrinsic clearance at 1 uM; format: ADME, Microsome
[6] = Membrane permeability across dog RRCK at 2 uM; format: ADME, cell-based, Canis lupus familiaris, MDCKII-LE; details: MDCK, read-out: permeability
[7] = AUC in rat at 3 mg/kg, po; format: ADME, organism-based; parameters: dose 3 mg/kg, route oral; details: plasma
Rattus norvegicus [8] = test: fAUC in rat at 3 mg/kg, po; format: ADME, organism-based; parameters: dose 3 mg/kg, route oral; details: in vivo
[9] = biological target: T1, Voltage-gated inwardly rectifying potassium channel KCNH2; test: Inhibition of human ERG
[10] = Lipophilicity, log D of the compound; format: physicochemical; details: octanol/water
[11] = Clearance in rat at 1 mg/kg, iv and 2 mg/kg, po; format: ADME, organism-based; details: in vivo
[12] = Volume of distribution in rat at 1 mg/kg, iv and 2 mg/kg, po; format: ADME, organism-based; details: in vivo
[13] = Half life in rat at 1 mg/kg, iv and 2 mg/kg, po; format: ADME, organism-based; details: in vivo
[14] = Oral bioavailability in rat at 1 mg/kg, iv and 2 mg/kg, po; format: ADME, organism-based; details: in vivo
[15] = Absorption in rat at 3 mg/kg, po; format: ADME, organism-based; parameters: dose 3 mg/kg, route oral; details: in vivo, read-out: Activity
[16] = Clearance in rat at 1 mg/kg, iv; format: ADME, organism-based; parameters: dose 1 mg/kg, route intravenous; details: in vivo
Rattus norvegicus [17] = test: Unbound clearance in rat at 1 mg/kg, iv; format: ADME, organism-based; parameters: dose 1 mg/kg, route intravenous; details: in vivo
[18] = Volume of distribution in rat at 1 mg/kg, iv; format: ADME, organism-based; parameters: dose 1 mg/kg, route intravenous; details: in vivo
[19] = Terminal half life in rat at 1 mg/kg, iv; format: ADME, organism-based; parameters: dose 1 mg/kg, route intravenous; details: in vivo, read-out: beta t1/2 (converted)
[20] = Oral bioavailability in rat at 3 mg/kg, po; format: ADME, organism-based; details: in vivo
[21] = AUC in rat at 1 mg/kg, iv; format: ADME, organism-based; parameters: dose 1 mg/kg, route intravenous; details: plasma
Rattus norvegicus [22] = test: fAUC in rat at 1 mg/kg, iv; format: ADME, organism-based; parameters: dose 1 mg/kg, route intravenous; details: in vivo
[23] = Metabolic stability in rat liver microsomes assessed as intrinsic clearance; format: ADME, Microsome
Rattus norvegicus [24] = test: Unbound volume of distribution in rat at 1 mg/kg, iv; format: ADME, organism-based; parameters: dose 1 mg/kg, route intravenous; details: in vivo

T1 sequence (Q12809 whole entry): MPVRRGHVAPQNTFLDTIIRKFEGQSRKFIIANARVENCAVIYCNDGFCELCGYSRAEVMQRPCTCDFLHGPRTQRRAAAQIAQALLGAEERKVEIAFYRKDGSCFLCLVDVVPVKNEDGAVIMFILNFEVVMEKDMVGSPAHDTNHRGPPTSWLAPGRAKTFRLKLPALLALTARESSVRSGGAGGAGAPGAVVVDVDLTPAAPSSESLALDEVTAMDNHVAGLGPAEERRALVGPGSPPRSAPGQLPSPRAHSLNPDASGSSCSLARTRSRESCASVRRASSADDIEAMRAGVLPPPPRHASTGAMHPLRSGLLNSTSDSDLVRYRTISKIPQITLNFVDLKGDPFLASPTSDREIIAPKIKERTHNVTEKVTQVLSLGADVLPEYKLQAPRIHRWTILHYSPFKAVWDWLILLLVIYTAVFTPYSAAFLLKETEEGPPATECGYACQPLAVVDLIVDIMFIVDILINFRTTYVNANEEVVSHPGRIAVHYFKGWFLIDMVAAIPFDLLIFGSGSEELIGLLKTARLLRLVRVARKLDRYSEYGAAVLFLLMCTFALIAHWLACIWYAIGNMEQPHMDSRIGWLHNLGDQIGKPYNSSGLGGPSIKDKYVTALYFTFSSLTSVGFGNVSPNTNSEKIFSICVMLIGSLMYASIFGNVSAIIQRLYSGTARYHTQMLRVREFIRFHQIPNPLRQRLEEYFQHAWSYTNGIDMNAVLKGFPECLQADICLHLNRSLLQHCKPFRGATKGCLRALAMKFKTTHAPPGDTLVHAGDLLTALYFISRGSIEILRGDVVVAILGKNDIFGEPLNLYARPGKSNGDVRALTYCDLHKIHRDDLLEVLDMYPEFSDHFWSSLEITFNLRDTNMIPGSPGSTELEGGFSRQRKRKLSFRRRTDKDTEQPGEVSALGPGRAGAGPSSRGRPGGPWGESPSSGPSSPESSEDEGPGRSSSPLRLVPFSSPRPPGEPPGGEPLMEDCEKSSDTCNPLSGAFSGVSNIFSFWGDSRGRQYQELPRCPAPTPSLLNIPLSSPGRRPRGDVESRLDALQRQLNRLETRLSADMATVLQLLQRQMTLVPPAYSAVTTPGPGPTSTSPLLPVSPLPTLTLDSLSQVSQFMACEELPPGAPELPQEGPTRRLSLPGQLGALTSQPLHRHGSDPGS

Work on `Cc1nc2ccccc2n1C1C[C@H]2CC[C@@H](C1)N2CC[C@H](NC(=O)c1ccc([S+](C)[O-])cc1)c1cccc(F)c1` (stereo not given in full) yielded an IC50 [1] of 40 nM.
With `Cc1nc2ccccc2n1C1C[C@H]2CC[C@@H](C1)N2CC[C@H](NC(=O)c1ccc[n+]([O-])c1)c1cccc(F)c1` (stereo not given in full) the IC50 [1] was 5 nM.
In the case of `Cc1nc2cnccc2n1C1C[C@H]2CC[C@@H](C1)N2CC[C@H](NC(=O)C1CC[S+]([O-])CC1)c1cccc(F)c1` (stereo not given in full), the IC50 [1] is reported as 4 nM.
In the case of `Cc1nc2ccc(F)cc2n1C1C[C@H]2CC[C@@H](C1)N2CCC(NC(=O)C1CC[S+]([O-])CC1)c1cccc(F)c1` (stereo not given in full), the Papp A→B at 5 µM [2] is reported as 2 ×10⁻⁶ cm/s, the IC50 [1] is reported as 0.01 nM and the “inhibition (INH)” value [3] is reported as “Not Active”. It also gave a Papp A→B at 5 µM [4] of 18 ×10⁻⁶ cm/s.
`Cc1nc2ccc(F)cc2n1C1C[C@H]2CC[C@@H](C1)N2CC[C@H](NC(=O)c1ccc([S+](C)[O-])cc1)c1cccc(F)c1` (stereo not given in full) gave an IC50 [1] of 1 nM.
Compound `Cc1nc2cc(F)ccc2n1C1C[C@H]2CC[C@@H](C1)N2CC[C@H](NC(=O)c1ccc(S(C)(=O)=O)cc1)c1cccc(F)c1` (stereo not given in full) has an IC50 [1] of 8 nM.
In the case of `Cc1nc2cc(F)ccc2n1C1C[C@H]2CC[C@@H](C1)N2CC[C@H](NC(=O)c1cc[n+]([O-])cc1)c1cccc(F)c1` (stereo not given in full), the IC50 [1] is reported as 0.1 nM.
With `Cc1nc2ccccc2n1C1C[C@H]2CC[C@@H](C1)N2CC[C@H](NC(=O)[C@H]1CC[S@@+]([O-])CC1)c1cccc(F)c1` (stereo not given in full) the Papp A→B at 5 µM [2] was 2 ×10⁻⁶ cm/s, the microsomal CLint at 1 µM [5] was 36 µL/min/mg and the Papp at 2 µM [6] was 1 ×10⁻⁶ cm/s. The Papp A→B at 5 µM [4] was 20 ×10⁻⁶ cm/s, the AUC [7] was 11 ng·h/mL and the fAUC (Rattus norvegicus [8]) was 1.7 ng·h/mL.
In the case of `Cc1nc2ccccc2n1C1C[C@H]2CC[C@@H](C1)N2CC[C@H](NC(=O)C1CCS(=O)(=O)CC1)c1cccc(F)c1` (stereo not given in full), the Papp A→B at 5 µM [2] is reported as < 1 ×10⁻⁶ cm/s, the microsomal CLint at 1 µM [5] is reported as 23 µL/min/mg and the Papp at 2 µM [6] is reported as 4 ×10⁻⁶ cm/s. The IC50 [1] was 0.2 nM, the “inhibition (INH)” value [3] was “Not Active” and the Papp A→B at 5 µM [4] was 20 ×10⁻⁶ cm/s. The AUC [7] was < 1 ng·h/mL and the fAUC (Rattus norvegicus [8]) was < 0.1 ng·h/mL.
For `CC[S+]([O-])CC(=O)N[C@@H](CCN1[C@@H]2CC[C@H]1CC(n1c(C)nc3ccccc31)C2)c1cccc(F)c1` (stereo not given in full), the IC50 [1] was > 100 nM.
In the case of `Cc1nc2cc(F)ccc2n1C1C[C@H]2CC[C@@H](C1)N2CC[C@H](NC(=O)c1ccc[n+]([O-])c1)c1cccc(F)c1` (stereo not given in full), the IC50 [1] is reported as 1 nM.
In the case of `Cc1nc2ccccc2n1C1C[C@H]2CC[C@@H](C1)N2CC[C@H](NC(=O)c1cc[n+]([O-])cc1)c1cccc(F)c1` (stereo not given in full), the IC50 [1] is reported as 4 nM.
With `Cc1nc2ccc(F)cc2n1C1C[C@H]2CC[C@@H](C1)N2CC[C@H](NC(=O)c1ccc[n+]([O-])c1)c1cccc(F)c1` (stereo not given in full) the IC50 [1] was 0.5 nM.
`Cc1nc2ccncc2n1C1C[C@H]2CC[C@@H](C1)N2CC[C@H](NC(=O)c1cc[n+]([O-])cc1)c1cccc(F)c1` (stereo not given in full) gave an IC50 [1] of 4 nM.
Compound `Cc1nc2cc(F)ccc2n1C1C[C@H]2CC[C@@H](C1)N2CC[C@H](NC(=O)c1ccc([S+](C)[O-])cc1)c1cccc(F)c1` (stereo not given in full) has an IC50 [1] of 36 nM.
Work on `Cc1nc2ccccc2n1C1C[C@H]2CC[C@@H](C1)N2CC[C@H](NC(=O)c1ccc(S(C)(=O)=O)cc1)c1cccc(F)c1` (stereo not given in full) yielded an IC50 [1] of 40 nM.
`Cc1nc2ccncc2n1C1C[C@H]2CC[C@@H](C1)N2CCC(NC(=O)C1CC[S+]([O-])CC1)c1cccc(F)c1` (stereo not given in full) gave a Papp A→B at 5 µM [2] of 2 ×10⁻⁶ cm/s, a microsomal CLint at 1 µM [5] of 50 µL/min/mg and an IC50 [1] of 1 nM. For the same compound, the “inhibition (INH)” value [3] was “Not Active” and the Papp A→B at 5 µM [4] was 2 ×10⁻⁶ cm/s.
With `Cc1nc2cc(F)ccc2n1C1C[C@H]2CC[C@@H](C1)N2CCC(NC(=O)C1CC[S+]([O-])CC1)c1cccc(F)c1` (stereo not given in full) the microsomal CLint at 1 µM [5] was 93 µL/min/mg, the Papp at 2 µM [6] was 2 ×10⁻⁶ cm/s and the IC50 [1] was 0.4 nM. The “inhibition (INH)” value [3] was “Not Active”.
In the case of `Cc1nc2ccccc2n1C1C[C@H]2CC[C@@H](C1)N2CC[C@H](NC(=O)c1cccc[n+]1[O-])c1cccc(F)c1` (stereo not given in full), the IC50 [1] is reported as > 100 nM.
In the case of `Cc1nc2ccncc2n1C1C[C@H]2CC[C@@H](C1)N2CC[C@H](NC(=O)C1CCS(=O)(=O)CC1)c1cccc(F)c1` (stereo not given in full), the microsomal CLint at 1 µM [5] is reported as < 8 µL/min/mg, the Papp at 2 µM [6] is reported as 1 ×10⁻⁶ cm/s and the IC50 [1] is reported as 0.2 nM. The “inhibition (INH)” value [3] was “Not Active”.
With `Cc1nc2ccccc2n1C1C[C@H]2CC[C@@H](C1)N2CC[C@H](NC(=O)C1CC[S+]([O-])CC1)c1cccc(F)c1` (stereo not given in full) the microsomal CLint at 1 µM [5] was 38 µL/min/mg, the IC50 [9] was > 10000 nM and the Papp at 2 µM [6] was 0.8 ×10⁻⁶ cm/s. The logD [10] was 2.3, the IC50 [1] was 0.2 nM and the clearance [11] was 104 mL/min/kg. For the same compound, the Vd [12] was 23 L/kg, the half-life [13] was 2.6 h and the bioavailability [14] was < 1%. For the same compound, the “inhibition (INH)” value [3] was “Not Active”.
For `Cc1nc2ccncc2n1C1C[C@H]2CC[C@@H](C1)N2CC[C@H](NC(=O)c1ccc([S+](C)[O-])cc1)c1cccc(F)c1` (stereo not given in full), the IC50 [1] was 2 nM.
Work on `CCc1nc2ccccc2n1C1C[C@H]2CC[C@@H](C1)N2CC[C@H](NC(=O)c1cc[n+]([O-])cc1)c1cccc(F)c1` (stereo not given in full) yielded an IC50 [1] of 24 nM.
`CCc1nc2ccccc2n1C1C[C@H]2CC[C@@H](C1)N2CCC(NC(=O)C1CC[S+]([O-])CC1)c1cccc(F)c1` (stereo not given in full) gave a microsomal CLint at 1 µM [5] of 89 µL/min/mg, a Papp at 2 µM [6] of 2 ×10⁻⁶ cm/s and an IC50 [1] of 0.05 nM. The “inhibition (INH)” value [3] was “Not Active”.
In the case of `CCc1nc2ccccc2n1C1C[C@H]2CC[C@@H](C1)N2CC[C@H](NC(=O)C1CCS(=O)(=O)CC1)c1cccc(F)c1` (stereo not given in full), the microsomal CLint at 1 µM [5] is reported as 25 µL/min/mg, the Papp at 2 µM [6] is reported as 3 ×10⁻⁶ cm/s and the IC50 [1] is reported as 0.3 nM. For the same compound, the “inhibition (INH)” value [3] was “Not Active”.
In the case of `Cc1nc2ccccc2n1C1C[C@H]2CC[C@@H](C1)N2CC[C@H](NC(=O)[C@H]1CC[S@+]([O-])CC1)c1cccc(F)c1` (stereo not given in full), the microsomal CLint at 1 µM [5] is reported as 111 µL/min/mg, the Papp at 2 µM [6] is reported as 1 ×10⁻⁶ cm/s and the AUC [7] is reported as 2 ng·h/mL. The fAUC (Rattus norvegicus [8]) was 0.3 ng·h/mL.
`Cc1nc2ccc(F)cc2n1C1C[C@H]2CC[C@@H](C1)N2CC[C@H](NC(=O)C1CCS(=O)(=O)CC1)c1cccc(F)c1` (stereo not given in full) showed a Papp A→B at 5 µM [2] of 5 ×10⁻⁶ cm/s, a microsomal CLint at 1 µM [5] of 10 µL/min/mg and a Papp at 2 µM [6] of 2 ×10⁻⁶ cm/s. It also gave a logD [10] of 2.9, an IC50 [1] of 0.01 nM and a Papp A→B at 5 µM [4] of 31 ×10⁻⁶ cm/s. The Fa [15] was 3%.
For `Cc1nc2ccccc2n1C1C[C@H]2CC[C@@H](C1)N2CC[C@H](NC(=O)C1CCSCC1)c1cccc(F)c1` (stereo not given in full), the microsomal CLint at 1 µM [5] was > 320 µL/min/mg, the IC50 [9] was 740 nM and the Papp at 2 µM [6] was 29 ×10⁻⁶ cm/s. It also gave a logD [10] of 3.7, an IC50 [1] of 0.2 nM and a clearance [16] of 60 mL/min/kg. For the same compound, the CL free (Rattus norvegicus [17]) was 2431 mL/min/kg, the Vd [18] was 2 L/kg and the half-life [19] was 0.8 h. It also gave a bioavailability [20] of 1%, a Fa [15] of 9% and an AUC [21] of 270 ng·h/mL. The AUC [7] was 10 ng·h/mL, the fAUC (Rattus norvegicus [22]) was 6.7 ng·h/mL and the fAUC (Rattus norvegicus [8]) was 0.25 ng·h/mL. For the same compound, the microsomal CLint [23] was > 510 µL/min/mg and the Vdu (Rattus norvegicus [24]) was 81 L/kg.
With `Cc1nc2ccncc2n1C1C[C@H]2CC[C@@H](C1)N2CC[C@H](NC(=O)c1ccc(S(C)(=O)=O)cc1)c1cccc(F)c1` (stereo not given in full) the IC50 [1] was 1 nM.
Work on `Cc1nc2cc(F)ccc2n1C1C[C@H]2CC[C@@H](C1)N2CC[C@H](NC(=O)C1CCS(=O)(=O)CC1)c1cccc(F)c1` (stereo not given in full) yielded a Papp A→B at 5 µM [2] of 3 ×10⁻⁶ cm/s, a microsomal CLint at 1 µM [5] of 14 µL/min/mg and a Papp at 2 µM [6] of 2 ×10⁻⁶ cm/s. For the same compound, the IC50 [1] was 0.03 nM, the “inhibition (INH)” value [3] was “Not Active” and the Papp A→B at 5 µM [4] was 21 ×10⁻⁶ cm/s.
